“And” between values parts separate entries of the source, which are not always exact repeats. Identical values can stand only once. Like-named read-outs stand apart in the source and are kept apart here. A value given as a limit tells only on which side of the number the result lay.

Consider 23 compounds from patent publication US20240327406A1, “POTASSIUM CHANNEL MODULATORS” (Autifony Therapeutics Limited, priority 2021, published 2024).

This test addresses T1, human Kv3.1 channels (hKv3.1) (Homo sapiens, UniProt P48547).
T1 sequence (P48547 1-501 limits assumed): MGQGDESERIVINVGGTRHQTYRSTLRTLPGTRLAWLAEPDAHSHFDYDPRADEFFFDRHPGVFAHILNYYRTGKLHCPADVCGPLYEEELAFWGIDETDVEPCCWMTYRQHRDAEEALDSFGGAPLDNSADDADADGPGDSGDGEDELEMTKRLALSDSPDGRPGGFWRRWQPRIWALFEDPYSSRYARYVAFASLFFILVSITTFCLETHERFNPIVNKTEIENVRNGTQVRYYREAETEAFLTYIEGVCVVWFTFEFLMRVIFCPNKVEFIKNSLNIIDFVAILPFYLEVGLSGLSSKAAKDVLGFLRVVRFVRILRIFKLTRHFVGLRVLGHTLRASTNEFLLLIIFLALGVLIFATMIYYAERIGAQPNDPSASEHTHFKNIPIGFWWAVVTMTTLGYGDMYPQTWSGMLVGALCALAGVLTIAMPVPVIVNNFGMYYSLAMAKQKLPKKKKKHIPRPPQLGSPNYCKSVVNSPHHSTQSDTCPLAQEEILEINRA
The test can be described thus: Measurement of Kv3 channel modulation: Kv3.1 assay (IonWorks Quattro whole-cell electrophysiology). It is filed as cell-based. To be noted: for Kv3.1 max R %: normalised to maximum effect of reference compound (50 microM). As for the experimental part: The ability of the compounds of the invention to modulate the voltage-gated potassium channel subtypes Kv3.4/Kv3.3/Kv3.2/Kv3.1 may be determined using the following assay. Analogous methods may be used to investigate the ability of the compounds of the invention to modulate other channel subtypes.
Human embryonic kidney (HEK)-hKv3.1 cell line is generated by transfecting HEK-293 cells with an expression vector with human Kv3.1 (NM_004976.4). Cells are cultured with MEM supplemented with 10% Heat-Inactivated FBS, 2 mM L-glutamine, 1% Penicillin-Streptomycin, and 0.6 mg/ml of Geneticin (G418). HEK-hKv3.1b cells were amplified in T175 cm2 flask at 37° C. with 5% CO2, using MEM amplification medium, containing the G418 selection antibiotic (0.6 mg/ml). Cells were detached every 3-4 days, using DPBS to wash twice the flask, then TrypLE to dislodge the cells, and re-plated at a density of 2-4×10^6 cells/flask.
The day of the experiment, cells are removed from the incubator and the culture medium removed. Cells are washed with 5 ml of Dulbecco's PBS (DPBS) calcium and magnesium free and detached by the addition of 3 ml Versene (Invitrogen, Italy) followed by a brief incubation at 37° C. for 5 minutes. The flask is tapped to dislodge cells and 10 ml of DPBS containing calcium and magnesium is added to prepare a cell suspension. The cell suspension is then placed into a 15 ml centrifuge tube and centrifuged for 2 min at 1200 rpm. After centrifugation, the supernatant is removed and the cell pellet re-suspended in 4 ml of DPBS containing calcium and magnesium using a 5 ml pipette to break up the pellet. Cell suspension volume is then corrected to give a cell concentration for the assay of approximately 3 million cells per ml.
Experiments are conducted at r.t. using IonWorks Quattro™ planar array electrophysiology technology (Molecular Devices Corp.) with PatchPlate™ PPC. Stimulation protocols and data acquisition are carried out using a microcomputer (Dell Pentium 4). Planar electrode hole resistances (Rp) are determined by applying a 10 mV voltage step across each well. These measurements are performed before cell addition. After cell addition and seal formation, a seal test is performed by applying a voltage step from −80 mV to −70 mV for 160 ms. Following this, amphotericin-B solution is added to the intracellular face of the electrode to achieve intracellular access. Cells are held at −70 mV. Leak subtraction is conducted in all experiments by applying 50 ms hyperpolarizing (10 mV) prepulses to evoke leak currents followed by a 20 ms period at the holding potential before test pulses.
For hKv3.2 and hKv3.1, assays from the holding potential of −70 mV, a first test pulse at −15 mV was applied for 100 ms and after 100 ms at −70 mV a second pulse at +40 mV was applied for 50 ms. Cells were then maintained for 100 ms at −100 mV and another pulse from […] to +40 mV (duration 50 ms) was applied to clamp later the voltage at −40 mV during 200 ms
The intracellular solution contains the following (in mM): K-gluconate 100, KCl 54, MgCl2 3.2, HEPES 5, adjusted to pH 7.3 with KOH. Amphotericin-B solution is prepared as 50 mg/ml stock solution in DMSO and diluted to a final working concentration of 0.1 mg/ml in intracellular solution.
Compounds of use in the invention (or reference compounds such as N-cyclohexyl-N-[(7,8-dimethyl-2-oxo-1,2-dihydro-3-quinolinyl)methyl]-N′-phenylurea) are dissolved in dimethylsulfoxide (DMSO) at a stock concentration of 10 mM. […] Each dilution (1 μL) is transferred to another compound plate and external solution containing 0.05% pluronic acid (66 μL) is added. 3.5 μL from each plate containing a compound of the invention is added and incubated with the cells during the IonWorks Quattro™ experiment. The final assay dilution is 200 and the final compound concentrations are in the range 50 μM to 50 nM.
(Patch clamp records ionic current or voltage across a cell membrane.)

[1] abbreviates: Table 2, Example compounds, rounded to one decimal place, some compounds with two data sets (n given in cell), read-out: Kv3.1 pEC50 (converted).
Where [2] appears, read: Table 1, Reference Examples, current at -15 mV step, normalised to 50 microM reference compound, read-out: Kv3.1 pEC50 (converted).
[3] abbreviates: Table 3, Reference Examples and corresponding Examples, rounded to one decimal place, read-out: Kv3.1 pEC50 (converted).

As to `Cc1ncc2[nH]c(=O)n(-c3ccc(Oc4ccc(C)c5c4C4(CC4)CO5)nc3)c2n1` [Example 25, 2-methyl-9-[6-(7-methylspiro[2H-benzofuran-3,1′-cyclopropane]-4-yl)oxy-3-pyridyl]-7H-purin-8-one], the “Kv3.1 max R %” value (Table 2, Example compounds) is reported as 190%. Under setting [1], the EC50 is 316 nM.

For the compound `Cc1ncc2[nH]c(=O)n(-c3ccc(Oc4ccc(C)c(OC(F)(F)F)c4)nc3)c2n1` [Example 27, 2-methyl-9-[6-[4-methyl-3-(trifluoromethoxy)phenoxy]-3-pyridyl]-7H-purin-8-one], the “Kv3.1 max R %” value (Table 2, Example compounds) is 134% and 138%. Also, the EC50 under setting [1] is 1580 nM and 1260 nM.

As for `COc1cccc(Oc2ccc(-n3c(=O)[nH]c4cnc(C)nc43)cn2)c1` [Example 28, 9-[6-(3-methoxyphenoxy)-3-pyridyl]-2-methyl-7H-purin-8-one], the “Kv3.1 max R %” value (Table 2, Example compounds) came out at 140%. The EC50 under setting [1] is 3980 nM.

Take `Cc1ccc(Oc2ccc(-n3c(=O)[nH]c4cncnc43)cn2)c2c1OCC21CC1` [Example 29, 9-[6-(7-methylspiro[2H-benzofuran-3,1′-cyclopropane]-4-yl)oxy-3-pyridyl]-7H-purin-8-one]: where the note is “Table 2, Example compounds”, the “Kv3.1 max R %” value is recorded as 117%. Moreover, the EC50 under setting [1] is 158 nM.

Turning to `Cc1ncc2[nH]c(=O)n(-c3ccc(Oc4cccc5c4C(C)(C)CO5)nc3)c2n1` [Example 30, 9-[6-[(3,3-dimethyl-2H-benzofuran-4-yl)oxy]-3-pyridyl]-2-methyl-7H-purin-8-one], where the note is “Table 2, Example compounds”, the “Kv3.1 max R %” value was found to be 123%. Further, the EC50 under setting [1] is 126 nM.

Regarding `Cc1ccc(Oc2ncc(-n3c(=O)[nH]c4cccnc43)cn2)c2c1OCC21CC1` [Example 31, 3-[2-(7-methylspiro[2H-benzofuran-3,1′-cyclopropane]-4-yl)oxypyrimidin-5-yl]-1H-imidazo[4,5-b]pyridine-2-one], for the setting “Table 2, Example compounds”, the “Kv3.1 max R %” value stood at 217%. The EC50 under setting [1] is 200 nM.

For `O=c1[nH]c2c[nH]nc2n1-c1ccc(Oc2cccc3c2C2(CC2)CO3)nc1` [Example 34, 6-(6-spiro[2H-benzofuran-3,1′-cyclopropane]-4-yloxy-3-pyridyl)-2,4-dihydroimidazo[4,5-c]pyrazol-5-one], under “Table 2, Example compounds”, the “Kv3.1 max R %” value is 128% and 131%. Moreover, the “Kv3.1 pEC50” value (Table 2, Example compounds, rounded to one decimal place, some compounds with two data sets (n given in cell)) was 5.0 (n = 2). Moreover, under setting [1], the EC50 is 10000 nM.

Consider `Cc1ccc(Oc2ccc(-n3c(=O)[nH]c4ccncc43)cn2)c2c1OCC21CC1` [Example 35, 3-[6-(7-methylspiro[2H-benzofuran-3,1′-cyclopropane]-4-yl)oxy-3-pyridyl]-1H-imidazo[4,5-c]pyridin-2-one], for which the “Kv3.1 max R %” value (Table 2, Example compounds) is given as 225%. Besides, the EC50 under setting [1] is 1000 nM.

`O=c1[nH]c2ncccc2n1-c1ccc(Oc2cccc3c2C2(CC2)CO3)nc1` [Example 36, 1-(6-spiro[2H-benzofuran-3,1′-cyclopropane]-4-yloxy-3-pyridyl)-3H-imidazo[4,5-b]pyridin-2-one] had an EC50 (Kv3.1 pEC50, Table 2, Example compounds, rounded to one decimal place, some compounds with two data sets (n given in cell)) of 631 nM; an EC50 (Kv3.1 pEC50, Table 3, Reference Examples and corresponding Examples, rounded to one decimal place) of 631 nM. The “Kv3.1 max R %” value (Table 2, Example compounds) is 113%.

Turning to `Cc1ccc2[nH]c(=O)n(-c3cnc(Oc4cccc5c4C4(CC4)CO5)cn3)c2n1` [Example 37, 5-methyl-3-(5-spiro[2H-benzofuran-3,1′-cyclopropane]-4-yloxypyrazin-2-yl)-1H-imidazo[4,5-b]pyridin-2-one], under “Table 2, Example compounds”, the “Kv3.1 max R %” value was determined as 124%. Under setting [1], the EC50 was 126 nM.

On to `Cc1cnc2c(c1)[nH]c(=O)n2-c1cnc(Oc2cccc3c2C2(CC2)CO3)cn1` [Example 38, 6-methyl-3-(5-spiro[2H-benzofuran-3,1′-cyclopropane]-4-yloxypyrazin-2-yl)-1H-imidazo[4,5-b]pyridin-2-one], for which the “Kv3.1 max R %” value (Table 2, Example compounds) is given as 122%. Further, the EC50 under setting [1] is 200 nM.

On to `Cc1ccc(Oc2ncc(-n3c(=O)[nH]c4cccnc43)cn2)c2c1OCC2(C)C` [Example 39, 3-[2-[(3,3,7-trimethyl-2H-benzofuran-4-yl)oxy]pyrimidin-5-yl]-1H-imidazo[4,5-b]pyridin-2-one], for which the “Kv3.1 max R %” value (Table 2, Example compounds) was 215%. The EC50 under setting [1] was 1580 nM.

In the case of `CC[C@H]1NC(=O)N(c2ccc(Oc3ccc(C)c4c3C3(CC3)CO4)nc2)C1=O` [RE1, reference compound], the “Kv3.1 max R %” value (Table 1, Reference Examples) was 157%.

Consider `CC[C@@H]1CN(c2ccc(Oc3ccc(C)c4c3C3(CC3)CO4)nc2)C(=O)N1` [RE2, reference compound], for which the EC50 under setting [2] is 20000 nM. In addition, the “Kv3.1 max R %” value (Table 1, Reference Examples) stood at 92%.

With `Cc1ccc(Oc2ccc(N3C(=O)NC4COCC43)cn2)c2c1OCC21CC1` (stereo not shown) [RE3, reference compound], under setting [2], the EC50 was > 50100 nM. Besides, the “Kv3.1 max R %” value (Table 1, Reference Examples) was found to be 30%.

Regarding `Cc1ccc(Oc2ncc(N3C(=O)NC(C)(C)C3=O)cn2)c2c1OCC21CC1` [RE4, reference compound], where the note is “Table 1, Reference Examples”, the “Kv3.1 max R %” value is given as 158%.

Consider `Cc1ccc(Oc2ccc(N3C(=O)CC(C)(C)NC3=O)cn2)c2c1OCC21CC1` [RE5, reference compound], for which, under setting [2], the EC50 is 11200 nM. Also, for the setting “Table 1, Reference Examples”, the “Kv3.1 max R %” value worked out at 90%.

Regarding `Cc1ccc(Oc2ccc(N3C(=O)NCC(C)(C)C3=O)cn2)c2c1OCC21CC1` [RE6, reference compound], the EC50 under setting [2] is 25100 nM. Also, the “Kv3.1 max R %” value (Table 1, Reference Examples) came out at 111%.

In the case of `Cc1ccc(Oc2ccc(N3CCNC3=O)cn2)c2c1OCC21CC1` [RE7, reference compound], the EC50 under setting [2] is 39800 nM. Further, the “Kv3.1 max R %” value (Table 1, Reference Examples) came out at 29%.

In the case of `Cc1ccc(Oc2ccc(N3C(=O)CCNC3=O)cn2)c2c1OCC21CC1` [RE8, reference compound], the EC50 under setting [2] was 25100 nM. The “Kv3.1 max R %” value (Table 1, Reference Examples) is on record as 140%.

Regarding `CC1(C)COc2cccc(Oc3ncc(-n4c(=O)[nH]c5cnccc54)cn3)c21` [RE9, reference compound], the EC50 under setting [3] is > 50100 nM.

On to `O=c1[nH]c2cnccc2n1-c1ccc(Oc2cccc(OC(F)(F)F)c2)nc1` [RE10, reference compound], for which the EC50 under setting [3] is 2510 nM.

In the case of `Cc1ccc(Oc2ccc(N3C(=O)NCc4cccnc43)cn2)c2c1OCC21CC1` [RE11, reference compound], under setting [3], the EC50 is 2000 nM.
